ChEMBL document CHEMBL4311992, “Discovery of 3-(((9H-purin-6-yl)amino)methyl)-4,6-dimethylpyridin-2(1H)-one derivatives as novel tubulin polymerization inhibitors for treatment of cancer” (Eur J Med Chem, 2019)
Calls of active or inactive are those of the source. The rule behind the calls is not given here.

Columns and labels:
[1] = tested on: Tyrosine-protein kinase Blk (Homo sapiens), P51451 [UNDEFINED MUTATION]; test: Inhibition of full-length recombinant human BLK M287V mutant assessed as residual activity at 10 uM using poly(Glu, Tyr) 4:1 as substrate measured after 40 mins in presence of [gamma33P]ATP by scintillation counting method
Sequence of Tyrosine-protein kinase Blk (Homo sapiens), P51451 [UNDEFINED MUTATION] (P51451 whole entry, looked up, stated change not applied, the tested form may be a part): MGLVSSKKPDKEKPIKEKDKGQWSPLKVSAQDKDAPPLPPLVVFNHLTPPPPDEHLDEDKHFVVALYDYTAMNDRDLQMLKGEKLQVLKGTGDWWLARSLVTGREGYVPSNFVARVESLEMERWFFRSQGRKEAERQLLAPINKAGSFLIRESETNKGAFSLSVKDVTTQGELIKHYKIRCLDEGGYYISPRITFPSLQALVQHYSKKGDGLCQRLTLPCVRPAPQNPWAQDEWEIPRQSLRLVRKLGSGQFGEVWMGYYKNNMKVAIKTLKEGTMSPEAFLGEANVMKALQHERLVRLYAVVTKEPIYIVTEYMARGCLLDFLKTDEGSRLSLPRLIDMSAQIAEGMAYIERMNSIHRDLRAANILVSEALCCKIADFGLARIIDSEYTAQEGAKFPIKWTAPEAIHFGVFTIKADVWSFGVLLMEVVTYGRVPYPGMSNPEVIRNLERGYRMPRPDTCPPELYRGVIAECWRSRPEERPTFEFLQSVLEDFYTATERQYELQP

[2] = target: Serine/threonine-protein kinase ULK2 (Homo sapiens) (UniProt Q8IYT8); test: Inhibition of human ULK2 (1 to 306 residues) using casein as substrate measured after 40 mins in presence of [gamma33P]ATP by scintillation counting method; parameters: scale not given: the % may be the effect or the level left
[3] = target: 5'-AMP-activated protein kinase catalytic subunit alpha-2 (Homo sapiens) (UniProt P54646); test: Inhibition of recombinant full-length human AMPKalpha2 assessed as residual activity at 10 uM using AMARAASAAALARRR as substrate measured after 40 mins in presence of [gamma33P]ATP by scintillation counting method
Sequence of 5'-AMP-activated protein kinase catalytic subunit alpha-2 (Homo sapiens) (P54646 whole entry, looked up): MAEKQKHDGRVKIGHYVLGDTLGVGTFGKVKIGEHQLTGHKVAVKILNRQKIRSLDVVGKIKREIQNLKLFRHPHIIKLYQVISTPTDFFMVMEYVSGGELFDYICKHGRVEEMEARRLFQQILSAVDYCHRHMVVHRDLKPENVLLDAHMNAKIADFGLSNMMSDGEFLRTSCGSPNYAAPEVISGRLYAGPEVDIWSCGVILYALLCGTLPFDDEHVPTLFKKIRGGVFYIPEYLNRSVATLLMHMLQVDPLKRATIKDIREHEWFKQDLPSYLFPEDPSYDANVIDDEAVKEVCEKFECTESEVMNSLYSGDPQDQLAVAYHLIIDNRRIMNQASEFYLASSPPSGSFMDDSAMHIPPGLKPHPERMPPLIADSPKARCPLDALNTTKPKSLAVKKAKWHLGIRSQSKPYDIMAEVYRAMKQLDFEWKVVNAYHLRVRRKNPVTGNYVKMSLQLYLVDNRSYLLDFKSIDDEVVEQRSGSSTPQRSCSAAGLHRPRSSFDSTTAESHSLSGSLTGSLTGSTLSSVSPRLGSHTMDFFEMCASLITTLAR

[4] = target: Serine/threonine-protein kinase pim-3 (Homo sapiens) (UniProt Q86V86); test: Inhibition of recombinant human Pim3 (2 to end residues) assessed as residual activity at 10 uM using RSRHSSYPAGT as substrate measured after 40 mins in presence of [gamma33P]ATP by scintillation counting method
[5] = target: Ephrin type-A receptor 1 (Homo sapiens) (UniProt P21709); test: Inhibition of recombinant human EphA1 (568 to end residues) assessed as residual activity at 10 uM using KKKSPGEYVNIEF as substrate measured after 40 mins in presence of [gamma33P]ATP by scintillation counting method
[6] = tested on: MDA-MB-231; test: Antiproliferative activity against human MDA-MB-231 cells assessed as reduction in cell viability after 72 hrs by MTT assay; type: functional, cell-based; conditions: MDA-MB-231, 72 h
[7] = tested on: Tyrosine-protein kinase ABL1 (Homo sapiens), P00519 [H396P]; test: Inhibition of recombinant human ABL H396P mutant (27 to end residues) assessed as residual activity at 10 uM using EAIYAAPFAKKK as substrate measured after 40 mins in presence of [gamma33P]ATP by scintillation counting method
[8] = target: Phosphatidylinositol 4-phosphate 3-kinase C2 domain-containing subunit alpha (Homo sapiens) (UniProt O00443); test: Inhibition of recombinant human PI3KC2alpha (299 to end residues) assessed as residual activity at 10 uM using phosphatidylinositol as substrate measured after 40 mins by HTRF assay
[9] = target: Mitogen-activated protein kinase kinase kinase kinase 4 (Homo sapiens) (UniProt O95819); test: Inhibition of recombinant human MAP4K4 (1 to 328 residues) assessed as residual activity at 10 uM using RLGRDKYKTLRQIRQ as substrate measured after 40 mins in presence of [gamma33P]ATP by scintillation counting method
[10] = target: Serine/threonine-protein kinase PAK 3 (Homo sapiens) (UniProt O75914); test: Inhibition of recombinant full-length human PAK3 assessed as residual activity at 10 uM using RRRLSFAEPG as substrate measured after 40 mins in presence of [gamma33P]ATP by scintillation counting method
[11] = target: Macrophage-stimulating protein receptor (Homo sapiens) (UniProt Q04912); test: Inhibition of human Ron (983 to end residues) using GGMEDIYFEFMGGKKK as substrate measured after 40 mins in presence of [gamma33P]ATP by scintillation counting method; parameters: scale not given: the % may be the effect or the level left
[12] = target: Protein kinase C zeta type (Homo sapiens) (UniProt Q05513); test: Inhibition of recombinant human PKCzeta (2 to end residues) assessed as residual activity at 10 uM using ERMRPRKRQGSVRRRV as substrate measured after 40 mins in presence of [gamma33P]ATP by scintillation counting method
[13] = tested on: eIF-2-alpha kinase GCN2 (Homo sapiens), Q9P2K8 [E556G]; test: Inhibition of recombinant full-length human GCN2 E556G mutant assessed as residual activity at 10 uM using RSRSRSRSRSRSRSR as substrate measured after 40 mins in presence of [gamma33P]ATP by scintillation counting method
[14] = target: Serine/threonine-protein kinase PLK3 (Homo sapiens) (UniProt Q9H4B4); test: Inhibition of recombinant human Plk3 (19 to 301 residues) assessed as residual activity at 10 uM using casein as substrate measured after 40 mins in presence of [gamma33P]ATP by scintillation counting method
[15] = target: FKBP12A/mTOR (Homo sapiens) (UniProt P62942+P42345); test: Inhibition of recombinant full-length human mTOR/FKBP12 assessed as residual activity at 10 uM measured after 40 mins in presence of [gamma33P]ATP by scintillation counting method; type: protein-complex assay
Sequence of FKBP12A/mTOR (Homo sapiens) (P62942 2-108 limits assumed, other chains not shown): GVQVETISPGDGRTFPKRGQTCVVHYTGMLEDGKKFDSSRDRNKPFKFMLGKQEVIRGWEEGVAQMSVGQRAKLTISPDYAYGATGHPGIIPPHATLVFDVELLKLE

[16] = Toxicity in nude BALB/c mouse assessed as change in total protein level at 40 to 80 mg/kg, po once daily for 4 weeks measured post-last dose; type: organism-based; conditions: in vivo, 672 h
[17] = target: Tribbles homolog 2 (Homo sapiens) (UniProt Q92519); test: Inhibition of recombinant full-length human TRB2 assessed as residual activity at 10 uM using RRRFRPASPLRGPPK as substrate measured after 120 mins in presence of [gamma33P]ATP by scintillation counting method
Sequence of Tribbles homolog 2 (Homo sapiens) (Q92519 whole entry): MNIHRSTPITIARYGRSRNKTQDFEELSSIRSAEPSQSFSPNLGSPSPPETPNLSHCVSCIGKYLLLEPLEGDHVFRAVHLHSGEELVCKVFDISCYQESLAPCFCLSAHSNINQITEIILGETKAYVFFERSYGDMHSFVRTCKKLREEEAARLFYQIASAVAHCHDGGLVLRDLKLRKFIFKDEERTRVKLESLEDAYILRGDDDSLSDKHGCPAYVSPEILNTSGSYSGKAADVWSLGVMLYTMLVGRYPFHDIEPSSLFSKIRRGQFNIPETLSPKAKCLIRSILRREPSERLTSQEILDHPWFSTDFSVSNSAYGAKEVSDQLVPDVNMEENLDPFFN

[18] = target: Calcium/calmodulin-dependent protein kinase type 1G (Homo sapiens) (UniProt Q96NX5); test: Inhibition of human CaMK1gamma; parameters: scale not given: the % may be the effect or the level left
Sequence of Calcium/calmodulin-dependent protein kinase type 1G (Homo sapiens) (Q96NX5 whole entry, the tested form may be a part): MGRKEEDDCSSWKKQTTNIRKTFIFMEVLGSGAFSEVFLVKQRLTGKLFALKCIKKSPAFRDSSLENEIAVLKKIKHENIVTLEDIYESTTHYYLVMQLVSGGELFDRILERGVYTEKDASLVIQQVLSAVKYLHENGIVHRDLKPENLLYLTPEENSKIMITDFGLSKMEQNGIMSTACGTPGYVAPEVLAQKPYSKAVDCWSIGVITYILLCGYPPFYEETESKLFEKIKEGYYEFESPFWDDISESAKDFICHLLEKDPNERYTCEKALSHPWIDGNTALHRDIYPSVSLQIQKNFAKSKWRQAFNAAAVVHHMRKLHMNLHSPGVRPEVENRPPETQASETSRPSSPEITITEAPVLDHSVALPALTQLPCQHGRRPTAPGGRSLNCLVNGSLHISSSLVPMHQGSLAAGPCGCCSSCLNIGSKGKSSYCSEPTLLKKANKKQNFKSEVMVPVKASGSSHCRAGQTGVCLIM

[19] = target: Bone morphogenetic protein receptor type-2 (Homo sapiens) (UniProt Q13873); test: Inhibition of recombinant human BMPR2 (172 to 734 residues) assessed as residual activity at 10 uM using myelin basic protein as substrate measured after 120 mins in presence of [gamma33P]ATP by scintillation counting method
[20] = target: Dual specificity mitogen-activated protein kinase kinase 3 (Homo sapiens) (UniProt P46734); test: Inhibition of human MKK3 assessed as residual activity at 10 uM by radiometric method
Sequence of Dual specificity mitogen-activated protein kinase kinase 3 (Homo sapiens) (P46734 whole entry, the tested form may be a part): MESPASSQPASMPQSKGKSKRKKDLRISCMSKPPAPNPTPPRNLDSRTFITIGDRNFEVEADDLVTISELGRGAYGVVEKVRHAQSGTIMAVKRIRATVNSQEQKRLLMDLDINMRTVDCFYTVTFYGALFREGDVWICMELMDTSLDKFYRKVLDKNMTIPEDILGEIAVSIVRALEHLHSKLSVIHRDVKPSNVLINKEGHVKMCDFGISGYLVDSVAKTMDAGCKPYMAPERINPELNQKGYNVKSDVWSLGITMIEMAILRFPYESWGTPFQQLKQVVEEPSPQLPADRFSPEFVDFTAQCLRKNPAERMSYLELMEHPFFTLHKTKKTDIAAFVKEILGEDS

[21] = target: Death-associated protein kinase 1 (Homo sapiens) (UniProt P53355); test: Inhibition of recombinant human DAPK1 (1 to 296 residues) assessed as residual activity at 10 uM using KKLNRTLSFAEPG as substrate measured after 40 mins in presence of [gamma33P]ATP by scintillation counting method
Sequence of Death-associated protein kinase 1 (Homo sapiens) (P53355 whole entry, looked up, the tested form may be a part): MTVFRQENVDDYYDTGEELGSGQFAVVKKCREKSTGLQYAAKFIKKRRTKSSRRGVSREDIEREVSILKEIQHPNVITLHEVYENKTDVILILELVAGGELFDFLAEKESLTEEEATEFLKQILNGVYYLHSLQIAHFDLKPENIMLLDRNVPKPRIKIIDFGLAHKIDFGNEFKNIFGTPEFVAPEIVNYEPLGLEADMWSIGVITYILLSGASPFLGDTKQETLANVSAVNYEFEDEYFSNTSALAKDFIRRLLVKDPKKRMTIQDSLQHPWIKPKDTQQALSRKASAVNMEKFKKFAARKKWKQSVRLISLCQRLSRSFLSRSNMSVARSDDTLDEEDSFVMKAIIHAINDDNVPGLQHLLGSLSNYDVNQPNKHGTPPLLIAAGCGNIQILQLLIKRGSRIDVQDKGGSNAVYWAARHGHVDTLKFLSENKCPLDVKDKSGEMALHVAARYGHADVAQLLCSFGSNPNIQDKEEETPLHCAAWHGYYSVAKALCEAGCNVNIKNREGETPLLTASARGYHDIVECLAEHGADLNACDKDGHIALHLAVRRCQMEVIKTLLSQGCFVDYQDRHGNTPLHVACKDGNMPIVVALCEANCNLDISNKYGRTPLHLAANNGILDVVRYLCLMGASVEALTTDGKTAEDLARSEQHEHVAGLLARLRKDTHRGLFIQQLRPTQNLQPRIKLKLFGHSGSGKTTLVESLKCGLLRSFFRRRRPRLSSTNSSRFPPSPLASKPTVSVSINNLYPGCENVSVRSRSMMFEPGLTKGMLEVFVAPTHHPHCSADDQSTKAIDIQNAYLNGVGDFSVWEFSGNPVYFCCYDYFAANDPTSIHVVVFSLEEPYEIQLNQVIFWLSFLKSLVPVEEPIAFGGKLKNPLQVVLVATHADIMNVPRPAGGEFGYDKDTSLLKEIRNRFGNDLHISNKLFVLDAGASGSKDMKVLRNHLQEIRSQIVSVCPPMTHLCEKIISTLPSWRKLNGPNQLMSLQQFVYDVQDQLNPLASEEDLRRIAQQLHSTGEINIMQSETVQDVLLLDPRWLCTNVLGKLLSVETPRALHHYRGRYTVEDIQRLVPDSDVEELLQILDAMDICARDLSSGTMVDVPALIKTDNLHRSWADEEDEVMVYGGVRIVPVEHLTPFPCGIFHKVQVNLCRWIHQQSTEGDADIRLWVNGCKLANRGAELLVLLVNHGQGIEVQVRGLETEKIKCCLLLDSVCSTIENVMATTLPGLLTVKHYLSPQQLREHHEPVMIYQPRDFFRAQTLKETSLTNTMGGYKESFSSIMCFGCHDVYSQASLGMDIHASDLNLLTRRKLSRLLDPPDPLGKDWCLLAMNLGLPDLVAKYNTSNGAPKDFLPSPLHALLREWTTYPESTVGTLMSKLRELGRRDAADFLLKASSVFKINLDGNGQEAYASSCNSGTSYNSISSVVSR

[22] = tested on: SW-620; test: Induction of apoptosis in human SW620 cells assessed as increase in cleaved PARP expression up to 200 nM measured after 48 hrs by Western blot analysis; type: functional, cell-based
[23] = tested on: Serine/threonine-protein kinase TAO3 (Homo sapiens), Q9H2K8 [UNDEFINED MUTATION]; test: Inhibition of human TAO3 (1 to 411 residues) using myelin basic protein as substrate measured after 40 mins in presence of [gamma33P]ATP by scintillation counting method; parameters: scale not given: the % may be the effect or the level left
Sequence of Serine/threonine-protein kinase TAO3 (Homo sapiens), Q9H2K8 [UNDEFINED MUTATION] (Q9H2K8 whole entry, looked up, stated change not applied, the tested form may be a part): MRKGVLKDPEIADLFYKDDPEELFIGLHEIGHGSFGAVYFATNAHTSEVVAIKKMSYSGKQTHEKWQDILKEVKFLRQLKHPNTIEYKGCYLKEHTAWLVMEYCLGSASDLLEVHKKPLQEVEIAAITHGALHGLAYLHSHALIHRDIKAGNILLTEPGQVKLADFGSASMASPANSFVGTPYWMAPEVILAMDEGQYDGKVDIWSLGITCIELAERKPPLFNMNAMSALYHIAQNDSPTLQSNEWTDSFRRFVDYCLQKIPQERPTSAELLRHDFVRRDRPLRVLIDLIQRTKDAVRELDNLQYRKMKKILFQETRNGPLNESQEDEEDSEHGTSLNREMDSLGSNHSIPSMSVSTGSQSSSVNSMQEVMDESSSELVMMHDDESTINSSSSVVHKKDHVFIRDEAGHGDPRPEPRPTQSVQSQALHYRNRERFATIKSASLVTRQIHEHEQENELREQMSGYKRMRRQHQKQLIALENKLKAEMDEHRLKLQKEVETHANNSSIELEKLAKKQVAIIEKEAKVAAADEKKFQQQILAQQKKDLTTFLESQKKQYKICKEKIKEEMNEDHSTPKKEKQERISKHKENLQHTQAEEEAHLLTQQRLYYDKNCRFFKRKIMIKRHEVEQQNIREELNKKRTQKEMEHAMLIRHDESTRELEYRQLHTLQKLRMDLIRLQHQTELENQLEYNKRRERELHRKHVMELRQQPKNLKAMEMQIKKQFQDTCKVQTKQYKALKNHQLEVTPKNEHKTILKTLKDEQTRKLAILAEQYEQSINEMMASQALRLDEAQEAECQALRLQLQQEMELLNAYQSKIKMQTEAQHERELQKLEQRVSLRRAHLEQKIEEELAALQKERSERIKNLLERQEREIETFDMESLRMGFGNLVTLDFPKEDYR

[24] = target: NUAK family SNF1-like kinase 1 (Homo sapiens) (UniProt O60285); test: Inhibition of recombinant human ARK5 (2 to end residues) assessed as residual activity at 10 uM using KKKVSRSGLYRSPSMPENLNRPR as substrate measured after 40 mins in presence of [gamma33P]ATP by scintillation counting method
[25] = Toxicity in nude BALB/c mouse xenografted with human HCT116 cells assessed as change in body weight at 80 mg/kg, po administered once daily for 4 weeks measured every 3 days during compound dosing; type: organism-based; conditions: in vivo

Which Activity [1] does the source give for Cc1cc(C)c(CNc2nc(Cl)nc3c2ncn3C2CCCC2)c(=O)[nH]1 here?
Its Activity is 115%.

And the Activity [2]?
The Activity was 103%.

And the Activity [3]?
The Activity was 117%.

What about the Activity [4] of the same compound?
The Activity was 107%.

And the Activity [5]?
Its Activity is 102%.

And the IC50 [6]?
The IC50 was 200 nM.

What about the Activity [7] of the same compound?
Its Activity is 104%.

And the Activity [8]?
The Activity was 112%.

What about the Activity [9] of the same compound?
The Activity was 114%.

What about the Activity [10] of the same compound?
Its Activity is 134%.

And the Activity [11]?
The Activity was 110%.

What about the Activity [12] of the same compound?
The Activity was 99.5%.

And the Activity [13]?
Its Activity is 110%.

What about the Activity [14] of the same compound?
The Activity was 99.5%.

And the Activity [15]?
Its Activity is 96.5%.

What about the Activity [16] of the same compound?
Its Activity is “Non-Toxic”.

What about the Activity [17] of the same compound?
Its Activity is 90.5%.

And the Activity [18]?
Its Activity is 126%.

What about the Activity [19] of the same compound?
Its Activity is 109%.

And the Activity [20]?
The Activity was 100%.

And the Activity [21]?
Its Activity is 114%.

What about the Activity [22] of the same compound?
The Activity was “Active”.

What about the Activity [23] of the same compound?
The Activity was 97%.

And the Activity [24]?
The Activity was 108%.

What about the Activity [25] of the same compound?
Its Activity is “Non-Toxic”.
